What all share (type): biochemical
Assay [1] has as its target T1, Strep ligase (D-Ala-D-Ala ligase) (Streptococcus pneumoniae serotype 4, UniProt P0CB57).
T1 sequence (P0CB57 1-347): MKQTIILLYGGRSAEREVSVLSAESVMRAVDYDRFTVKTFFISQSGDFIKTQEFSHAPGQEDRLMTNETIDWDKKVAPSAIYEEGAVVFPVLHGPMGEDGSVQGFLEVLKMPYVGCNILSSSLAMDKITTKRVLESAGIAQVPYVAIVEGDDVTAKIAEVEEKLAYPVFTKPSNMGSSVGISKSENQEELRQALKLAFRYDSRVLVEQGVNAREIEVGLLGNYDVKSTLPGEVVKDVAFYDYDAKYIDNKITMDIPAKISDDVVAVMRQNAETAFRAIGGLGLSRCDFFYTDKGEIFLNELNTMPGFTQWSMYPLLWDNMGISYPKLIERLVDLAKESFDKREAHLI
Kind of assay: D-Ala-D-Ala ligase Ki determination (PK/LDH coupled assay), Strep ligase. The source says: (§1) Inhibition of D-Ala-D-Ala ligase can be assayed for using the pyruvate kinase/lactate dehydrogenase (PK/LDH) assay described in Example 2, and as described in the literature (e.g., in Sarthy et al., Anal. Biochem., 254:288-290, 1997). In the bacterial cell wall synthesis process, the ligase catalyzes the conversion of adenosine triphosphate (ATP) to adenosine diphosphate (ADP) concurrent with the ligation of two D-alanine residues to form D-alanyl-D-alanine. PK then regenerates ATP from the ADP thus created simultaneously with the conversion of phosphopyruvate to pyruvate. LDH catalyzes the reduction of pyruvate to lactate by converting NADH to NAD^+. By monitoring the production rate of NAD^+ (e.g., using UV/Vis spectroscopy), D-Ala-D-Ala ligase activity can be ascertained.
(§2) The protein sequence for the enzyme D-ala-D-ala ligase has been determined in a variety of different bacterial species using standard techniques in biochemistry (see Table 5). The protein sequence from any species can be overexpressed in an appropriate host organism such as E. coli using standard molecular biology techniques. The ligase enzyme can be harvested, purified, and used in the above described assay for the determination of inhibitory activity.
(§3) The synthetic analogs of Example 1 were dissolved in dimethylsulfoxide (DMSO) at a concentration of 100 mM on the day of screening, using a vortex mixer and sonication if necessary for dissolution. The solutions were kept at room temperature until screening was completed.
(§4) A 10 mM NADH (Sigma) stock solution was prepared freshly on the day of screening by dissolving 32 μmol NADH in 3.2 ml double-distilled water. The NADH solution was kept on ice. Stock solutions containing 50 mM phosphoenolpyruvate (PEP; Sigma), 500 μM HERMES, 30 mM adenosine triphosphate (ATP; Sigma), 200 mM D-alanine (Sigma), and 4× core buffer (i.e., 400 mM Hepes, 40 mM magnesium chloride, and 40 mM potassium chloride), were also stored on ice. A stock solution of pyruvate kinase/lactate dehydrogenase (PK/LDH) was also obtained from Sigma.
(§5) Table of Final concentrations are dependent on the type of screening:
(§6) For each set of test compounds, two 96-well plates were used: an inhibitor plate and an enzyme plate. The test compounds correspond to rows A-G of the plates. Adenosine (Sigma) dissolved in DMSO, used as a control, corresponds to row H of each plate.
(§7) The enzyme solution was allowed to equilibrate to 25° C.
(§8) Dilutions were prepared in the inhibitor plate as follows: 50 μl DMSO was added to each well of columns 1-11, rows A-G, of the inhibitor plate. 50 μl DMSO were added to each well of columns 1-11, row H. 100 μl of the 100 mM test solutions were added to column 12, rows A-G (i.e., the first compound in row A, the second compound in row B, and so on). 100 μl of a 100 mM Adenosine solution was added to column 12, row H.
(§9) 50 μl of the test solution was transferred from column 12 in each row to column 11 of the a same row, mixing the solution with the DMSO. 50 μl of solution was then transferred from column 11 in each row to column 10 in the same row, 50 μl from column 10 was transferred to column 9, and so on, down to column 2. No solution was transferred to column 1. Multichannel pipettors were used in making the serial dilution.
(§10) 120 μl of the enzyme solution was added to each well of the enzyme plate.
(§11) The substrate solutions were brought to 25° C.
(§12) The analogs and enzymes were then incubated at 25° C. Since the reactions were initiated in columns, the analog addition is also in columns. At t=0 minutes, 5 μl analog was transferred from each well of columns 1-4 of the inhibitor plate to the corresponding well of the enzyme plate. At t=4 minutes, 5 μl analog was transferred from each well of columns 5-8 of the inhibitor plate to the corresponding well of the enzyme plate. At t=8 minutes, 5 μl analog was transferred from each well of columns 9-12 of the inhibitor plate to the corresponding well of the enzyme plate. The inhibitor plate was then frozen. […]

Assay [2] has as its target H. Influenzae ligase (D-Ala-D-Ala ligase) (Haemophilus influenzae, UniProt P44405). Kind of assay: D-Ala-D-Ala ligase Ki determination (PK/LDH coupled assay), H. influenzae ligase.
From the text: as §1, §2, §3, §4, §5, §6, §7, §8, §9, §10, §11, §12

Assay [3] addresses E. coli ligase (D-Ala-D-Ala ligase) (Escherichia coli, UniProt P07862). Kind of assay: D-Ala-D-Ala ligase Ki determination (PK/LDH coupled assay), E. coli ligase.
From the text: as §1, §2, §3, §4, §5, §6, §7, §8, §9, §10, §11, §12

Assay [4] addresses T2, 4 ligases in the panel (D-Ala-D-Ala ligase).
T2 construct: rows headed: Ki's against 3 of the 4 ligases in the panel; other: text b65; 3 of the 4 ligases
In words: Ligase panel statements (ligases not individually named). As to conditions: 3 of the 4 ligases; read-out: Ki's against 3 of the 4 ligases in the panel.
From the text: as §1, §2, §3
(§13) A 10 mM NADH (Sigma) stock solution was prepared freshly on the day of screening by dissolving 32 μmol NADH in 3.2 ml double-distilled water. The NADH solution was kept on ice. […]
(§14) Plots of reaction rates vs. inhibitor concentration were generated using Kaleidograph®, and Ki values were determined after the data was fitted to the proper equation.

Assay [5] has as its target Staph ligase (D-Ala-D-Ala ligase) (Staphylococcus aureus, UniProt Q5HEB7). In words: D-Ala-D-Ala ligase Ki determination (PK/LDH coupled assay), Staph ligase.
From the text: as §1, §2, §3, §4, §5, §6, §7, §8, §9, §10, §11, §12

In assay [6] the test system is T3, 4 ligases in the panel (D-Ala-D-Ala ligase).
T3 construct: rows headed: ligase panel activity (in words); other: text b65
Kind of assay: Ligase panel statements (ligases not individually named).
From the text: as §1, §2, §3, §13, §14

Where [7] appears, read: Table 3, Ki/ATP, avg, read-out: Strep ligase Ki/ATP (uM) avg.
[8] abbreviates: Table 3, Ki/ATP, avg, read-out: H. Influenzae ligase Ki/ATP (uM) avg.
[9] abbreviates: E. coli ligase Ki/ATP (uM) avg, Table 3, Ki/ATP, avg.
Where [10] appears, read: Table 3, Ki/ATP, avg, read-out: Staph ligase Ki/ATP (uM) avg.
[11] abbreviates: Table 5, Ki/ATP, avg, read-out: Strep ligase Ki/ATP (uM) avg.
Setting [12] is: Table 5, Ki/ATP, avg, read-out: H. Influenzae ligase Ki/ATP (uM) avg.
The mark [13] stands for this setting: E. coli ligase Ki/ATP (uM) avg, Table 5, Ki/ATP, avg.
[14] abbreviates: Table 5, Ki/ATP, avg, read-out: Staph ligase Ki/ATP (uM) avg.

This note sets out measurements from US20080090847A1, “HETEROCYCLIC COMPOUNDS AND USES THEREOF AS D-ALANYL-D-ALANINE LIGASE INHIBITORS” (PLIVA D.D., priority 2001, published 2008).

Where two headings read alike, the source gives them in different places. Some results are limits rather than exact numbers.

Chain of H. Influenzae ligase (D-Ala-D-Ala ligase) (P44405 whole entry): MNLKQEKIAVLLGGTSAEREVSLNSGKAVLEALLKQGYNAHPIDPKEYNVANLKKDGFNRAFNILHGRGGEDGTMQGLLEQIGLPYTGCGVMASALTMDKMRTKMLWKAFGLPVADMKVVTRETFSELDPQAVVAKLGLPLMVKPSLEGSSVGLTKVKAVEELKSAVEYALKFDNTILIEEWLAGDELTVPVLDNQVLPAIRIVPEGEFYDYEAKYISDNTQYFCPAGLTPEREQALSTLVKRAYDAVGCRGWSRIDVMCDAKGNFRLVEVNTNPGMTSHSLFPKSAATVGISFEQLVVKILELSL
Chain of Staph ligase (D-Ala-D-Ala ligase) (Q5HEB7 whole entry): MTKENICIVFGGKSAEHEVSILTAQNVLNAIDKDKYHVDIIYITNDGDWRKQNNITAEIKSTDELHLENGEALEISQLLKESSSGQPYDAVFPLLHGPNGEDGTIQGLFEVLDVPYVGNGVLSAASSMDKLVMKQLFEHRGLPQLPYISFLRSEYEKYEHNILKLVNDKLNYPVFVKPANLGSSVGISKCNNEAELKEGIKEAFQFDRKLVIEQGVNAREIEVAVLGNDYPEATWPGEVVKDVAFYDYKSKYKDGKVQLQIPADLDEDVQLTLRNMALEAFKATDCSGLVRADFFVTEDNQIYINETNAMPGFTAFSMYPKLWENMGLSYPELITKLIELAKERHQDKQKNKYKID

`CCOc1ccc2ccccc2c1CN(CCC(=O)NCc1cccc(CN)c1)c1ncc2c(N)nc(N)nc2n1`: the Ki in assay [1] (setting [7]) is 0.9 µM; in assay [2] (setting [8]) it was 0.4 µM; in assay [3] (setting [9]) it was 5.3 µM; in assay [4], below 1 µM; in assay [5] (setting [10]), 0.9 µM.
Turning to `CCOc1ccc2ccccc2c1CN(CCC(=O)NCC(=N)N)c1ncc2c(N)nc(N)nc2n1`, the Ki in assay [1] (setting [7]) came out at 1.4 µM; in assay [2] (setting [8]) it was 0.6 µM; in assay [3] (setting [9]) it was 1 µM; in assay [5] (setting [10]), 6.3 µM. For the same compound, the “ligase panel activity (in words)” value in assay [6] is “activity similar to that of the first compound”.
On to `CCOc1ccc2ccccc2c1CN(CCC(=O)NCc1ccc(N)cc1)c1ncc2c(N)nc(N)nc2n1`, for which the Ki in assay [1] (setting [7]) was 1.6 µM; in assay [2] (setting [8]), 1.6 µM; in assay [3] (setting [9]), 8.7 µM; in assay [5] (setting [10]), 1.2 µM. The “ligase panel activity (in words)” value in assay [6] is “potent against three ligase species”.
For `CCOc1ccc2ccccc2c1CN(CC(O)C(=O)O)c1ncc2c(N)nc(N)nc2n1` (stereo not drawn), the Ki in assay [1] (read-out: activity against Strep (ligase)) worked out at 2.6 µM; in assay [2] (read-out: activity against H. influenzae (ligase)), 0.566 µM; in assay [3] (E. coli ligase potency) it was 0.143 µM; in assay [5] (read-out: activity against Staph (ligase)), 4.1 µM.
Take `CCCN(c1ncc2c(N)nc(N)nc2n1)C(C)c1cccc2ccccc12` (stereo not drawn): the Ki in assay [1] (setting [11]) was determined as 439 µM; in assay [2] (setting [12]), 2.7 µM; in assay [3] (setting [13]), 2 µM; in assay [5] (setting [14]), 58 µM.
On to `CC(c1cccc2ccccc12)N(CCCN)c1ncc2c(N)nc(N)nc2n1` (stereo not drawn), for which the Ki turned out to be 81.2 µM in assay [1] (setting [11]), 5.5 µM in assay [2] (setting [12]), 0.457 µM in assay [3] (setting [13]) and 46 µM in assay [5] (setting [14]).
Take `CCOc1ccc2ccccc2c1CN(CCCCN)c1ncc2c(N)nc(N)nc2n1` [N7-(4-Amino-butyl)-N-7-(2-ethoxynaphthalen-1-ylmethyl)-pyrimido[4,5-d]pyrimidine-2,4,7-triamine]: the Ki in assay [1] (setting [11]) is 4.5 µM; in assay [2] (setting [12]), 0.52 µM; in assay [3] (setting [13]), 0.105 µM; in assay [3] (Ki against the ligase isolated from E. coli) it was 0.102 µM; in assay [5] (setting [14]), 15 µM.
Turning to `CC(c1cccc2ccccc12)N(CCCCN)c1ncc2c(N)nc(N)nc2n1` (stereo not drawn) [drawing 55], the Ki amounted to 23.1 µM in assay [1] (setting [11]), 4.2 µM in assay [2] (setting [12]), 0.135 µM in assay [3] (setting [13]) and 32 µM in assay [5] (setting [14]).
